In data set [1] the test system is conscious Sprague-Dawley rats. Nature of the data set: Positive inotropic challenge (dobutamine, levosimendan) after supra-therapeutic mavacamten, echocardiography. Format: in vivo, rat. Conditions: supra-therapeutic dose, healthy rats. As for the experimental part: Methods: The responsiveness of mavacamten-induced cardio-depression to positive inotropic challenges was assessed in a set of conscious Sprague-Dawley rats. In these animals, functional reserve was assessed via either dobutamine (+DOB, 10 μg/kg/min IV for 10 min, n=7) or levosimendan (+LEVO, 0.3 μmol/kg IV over […]; n=6) challenges given 3 hrs following a single-dose administration of MAVA (at 4 mg/kg, PO). Cardiac function/geometry were recorded and compared at three separate time-points/days: prior to dosing (i.e., at baseline) and at 3 hrs post-dosing both before as well as during the inotropic challenge; in order to account for the levosimendan-induced changes in loading conditions, an additional echocardiographic examination was performed following acute preload-restoration in LEVO-treated rats (+LEVO/F, 0.9% NaCl at 30 mL/kg/hr IV).
In these experiments, left-ventricular fractional shortening (FS), an index of systolic performance, as well as LV dimensions/volumes and heart rates were measured using a high-frequency transducer and parasternal long-axis transthoracic views (Vevo2100, VisualSonic). FS was defined as the end-diastole normalized change in internal dimensions/diameter of the left ventricle between end-systole (LVESd) and end-diastole (LVEDd) (i.e., FS=100·[LVEDd−LVESd]/LVEDd). LV volumes were derived assuming a Teichholz model (LVV=7·[2.4+LVid]−1·LVid3).

A further data set deals with T1, CYP2J2 (Homo sapiens, UniProt P51589).
T1 sequence (P51589 1-502): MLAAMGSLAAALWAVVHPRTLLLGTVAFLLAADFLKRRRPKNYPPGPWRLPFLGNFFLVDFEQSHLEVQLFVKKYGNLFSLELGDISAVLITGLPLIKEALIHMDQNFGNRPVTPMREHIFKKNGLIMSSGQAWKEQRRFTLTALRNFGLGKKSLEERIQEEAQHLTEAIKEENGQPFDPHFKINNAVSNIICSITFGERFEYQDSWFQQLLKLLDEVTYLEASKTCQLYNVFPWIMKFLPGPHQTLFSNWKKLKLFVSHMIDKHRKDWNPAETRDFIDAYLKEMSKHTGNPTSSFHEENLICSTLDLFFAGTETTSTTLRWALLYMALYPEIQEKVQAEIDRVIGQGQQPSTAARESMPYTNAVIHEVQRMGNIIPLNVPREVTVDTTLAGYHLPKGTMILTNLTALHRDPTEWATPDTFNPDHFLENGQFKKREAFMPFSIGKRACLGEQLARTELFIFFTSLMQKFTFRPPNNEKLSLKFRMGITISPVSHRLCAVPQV
Nature of the data set: In vitro contribution of CYP enzymes to mavacamten metabolism. The format is in vitro ADME.

For the compound `CC(C)n1c(=O)cc(N[C@@H](C)c2ccccc2)[nH]c1=O` [mavacamten, (S)-3-Isopropyl-6-((1-phenylethyl)amino)pyrimidine-2, 4(1H,3H)-dione], in data set [1], the “reduction in ejection fraction” value is recorded as approximately 50%. In addition, the “percent contribution to the metabolism of mavacamten” value on CYP2J2 is recorded as “negligible”.
